Measured values: patent US8546440B2, “Substituted bicyclic imidazole derivatives as gamma secretase modulators” (Janssen Pharmaceuticals, Inc., priority 2008, dated 2013)

How the values were obtained:
Assay type in all cases: cell-based
Aβ42 [1] = experiment: Screening for γ-secretase-modulating activity, Method 1: Aβ42 sandwich ELISA in supernatant of SKNBE2 cells carrying APP 695 wild type (Tables 12a, 12b); settings: Table 12b, Method 1, SKNBE2 cells carrying APP 695 wild type, cell supernatant ELISA, averaged IC50 values, percentage of control vs log concentration
Protocol: (§1) Screening was carried out using SKNBE2 cells carrying the APP 695—wild type, grown in Dulbecco's Modified Eagle's Medium/Nutrient mixture F-12 (DMEM/NUT-mix F-12) (HAM) provided by Gibco (cat no. 31330-38) containing 5% Serum/Fe supplemented with 1% non-essential amino acids. Cells were grown to near confluency.
(§2) The screening was performed using the assay as described in Citron et al (1997) Nature Medicine 3: 67. Briefly, cells were plated in a 96-well plate at about 10^5 cells/ml one day prior to addition of compounds. Compounds were added to the cells in Ultraculture (Lonza, BE12-725F) supplemented with 1% glutamine (Invitrogen, 25030-024) for 18 hours. The media were assayed by two sandwich ELISAs, for Aβ42 and Aβtotal. Toxicity of the compounds was assayed by WST-1 cell proliferation reagent (Roche, 1 644 807) according to the manufacturer's protocol.
To quantify the amount of Aβ42 in the cell supernatant, commercially available Enzyme-Linked-Immunosorbent-Assay (ELISA) kits were used (Innotest® β-Amyloid(1-42), Innogenetics N.V., Ghent, Belgium). The Aβ42 ELISA was performed essentially according to the manufacturer's protocol. Briefly, the standards (dilutions of synthetic Aβ1-42) were prepared in polypropylene Eppendorf with final concentrations of 8000 down to 3.9 pg/ml (1/2 dilution step). Samples, standards and blanks (100 μl) were added to the anti-Aβ42-coated plate supplied with the kit (the capture antibody selectively recognizes the C-terminal end of the antigen). The plate was allowed to incubate 3 h at 25° C. in order to allow formation of the antibody-amyloid complex. Following this incubation and subsequent wash steps a selective anti-Aβ-antibody conjugate (biotinylated 3D6) was added and incubated for a minimum of 1 hour in order to allow formation of the antibody-Amyloid-antibody-complex. After incubation and appropriate wash steps, a Streptavidine-Peroxidase-Conjugate was added, followed 30 minutes later by an addition of 3,3′,5,5′-tetramethylbenzidine (TMB)/peroxide mixture, resulting in the conversion of the substrate into a coloured product. This reaction was stopped by the addition of sulfuric acid (0.9 N) and the colour intensity was measured by means of photometry with an ELISA-reader with a 450 nm filter.
(§3) To obtain the values reported in Table 12a, the sigmoidal dose response curves were analysed by computerised curve-fitting, with percent of inhibition plotted against compound concentration. A 4-parameter equation (model 205) in XLfit was used to determine the IC50. The top and the bottom of the curve were fixed to 100 and 0, respectively, and the hill slope was fixed to 1. The IC50 represents the concentration of a compound that is required for inhibiting a biological effect by 50% (Here, it is the concentration where Aβ peptide level is reduced by 50%).
(§4) To obtain the values reported in Table 12b, the data are calculated as percentage of the maximum amount of amyloid Beta 42 measured in the absence of the test compound. The sigmoidal dose response curves were analyzed using non-linear regression analysis with percentage of the control plotted against the log concentration of the compound. A 4-parameter equation was used to determine the IC50. The values reported in Table 12b are averaged IC50 values.

Aβtotal [2] = experiment: Screening for γ-secretase-modulating activity, Method 1: Aβtotal sandwich ELISA in supernatant of SKNBE2 cells carrying APP 695 wild type (Tables 12a, 12b); settings: Table 12b, Method 1, SKNBE2 cells carrying APP 695 wild type, cell supernatant ELISA, averaged IC50 values
Protocol: as §1, §2
To quantify the amount of Aβtotal in the cell supernatant, samples and standards were added to a 6E10-coated plate. The plate was allowed to incubate overnight at 4° C. in order to allow formation of the antibody-amyloid complex. Following this incubation and subsequent wash steps a selective anti-Aβ-antibody conjugate (biotinylated 4G8) was added and incubated for a minimum of 1 hour in order to allow formation of the antibody-Amyloid-antibody-complex. After incubation and appropriate wash steps, a Streptavidine-Peroxidase-Conjugate was added, followed 30 minutes later by an addition of Quanta Blu fluorogenic peroxidase substrate according to the manufacturer's instructions (Pierce Corp., Rockford, Ill.).
as §3, §4

Aβ42 [3] = experiment: Screening for γ-secretase-modulating activity, Method 2: Aβ42 Alphalisa in supernatant of SKNBE2 cells carrying APP 695 wild type (Table 12c); settings: Method 2, Table 12c, incubated overnight
Protocol: as §1, with “Invitrogen” for “Gibco”, “10371-029)” for “31330-38)”, “acids, 1-glutamine 2 mM, Hepes 15 mM, penicillin 50 U/ml (units/ml) en streptomycin 50 μg/ml.” for “acids.”
(§5) The screening was performed using a modification of the assay as described in Citron et al (1997) Nature Medicine 3: 67. Briefly, cells were plated in a 384-well plate at 10^4 cells/well in Ultraculture (Lonza, BE12-725F) supplemented with 1% glutamine (Invitrogen, 25030-024), 1% non-essential amino acid (NEAA), penicillin 50 U/ml en streptomycin 50 μg/ml in the presence of test compound at different test concentrations. The cell/compound mixture was incubated overnight at 37° C., 5% CO2, The next day the media were assayed by two sandwich immuno-assays, for Aβ42 and Aβtotal.
(§6) Aβtotal and Aβ42 concentrations were quantified in the cell supernatant using the Aphalisa technology (Perkin Elmer). Alphalisa is a sandwich assay using biotinylated antibody attached to streptavidin coated donorbeads and antibody conjugated to acceptor beads. In the presence of antigen, the beads come into close proximity. The excitation of the donor beads provokes the release of singlet oxygen molecules that trigger a cascade of energy transfer in the acceptor beads, resulting in light emission. To quantify the amount of Aβ42 in the cell supernatant, monoclonal antibody specific to the C-terminus of Aβ42 (JRF/cAβ42/26) was coupled to the receptor beads and biotinylated antibody specific to the N-terminus of Aβ (JRF/AβN/25) was used to react with the donor beads. To quantify the amount of Aβtotal in the cell supernatant, monoclonal antibody specific to the N-terminus of Aβ (JRF/AβN/25) was coupled to the receptor beads and biotinylated antibody specific to the mid region of Aβ (biotinylated 4G8) was used to react with the donor beads.
as §4, with “12c,” for “12b,”, “IC50.” for “IC50. The values reported in Table 12b are averaged IC50 values.”

Aβtotal [4] = experiment: Screening for γ-secretase-modulating activity, Method 2: Aβtotal Alphalisa in supernatant of SKNBE2 cells carrying APP 695 wild type (Table 12c); settings: Method 2, Table 12c, incubated overnight
Protocol: as §1, with “Invitrogen” for “Gibco”, “10371-029)” for “31330-38)”, “acids, 1-glutamine 2 mM, Hepes 15 mM, penicillin 50 U/ml (units/ml) en streptomycin 50 μg/ml.” for “acids.”
as §5, §6
as §4, with “12c,” for “12b,”, “IC50.” for “IC50. The values reported in Table 12b are averaged IC50 values.”

IC50 (Aβ42 [1]; Homo sapiens) [nM]	IC50 (Aβtotal [2]; Homo sapiens) [nM]	Structure (SMILES)	further results
72	18600	Cc1ncn(-c2ccc(Nc3cccn4cc(-c5ccc(F)cc5C)nc34)cc2F)n1 [Compound 91]	–
295	> 3020	COc1cc(Nc2cccn3cc(C4CC4)nc23)ccc1-n1cnc(C)c1 [Compound 116]	–
1780	> 3020	COc1cc(Nc2cc(C(F)(F)F)cn3cc(CO)nc23)ccc1-n1cnc(C)n1 [Compound 152]	–
1900	> 3020	CCc1cn2cc(C(F)(F)F)cc(Nc3ccc(-n4cnc(C)n4)c(OC)c3)c2n1 [Compound 153]	–
234	> 3020	COc1cc(Nc2nc(Br)cn3cc(-c4ccc(F)cc4C)nc23)ccc1-n1cnc(C)n1 [Compound 177]	–

Continued, compound first:

Structure (SMILES)	IC50 (Aβ42 [1]; Homo sapiens) [nM]	IC50 (Aβtotal [2]; Homo sapiens) [nM]	further results
COc1cc(Nc2cccn3c(CNC=O)c(-c4cccc(F)c4)nc23)ccc1-n1cnc(C)c1 [Compound 100]	–	–	IC50 (Aβ42 [1]): 11 nM; IC50 (Aβtotal [2]): > 3020 nM
COc1cc(Nc2cccn3c(CO)c(-c4ccc(F)cc4)nc23)ccc1-n1cnc(C)c1 [Compound 101]	13	> 1000	–
COCc1c(-c2ccccc2)nc2c(Nc3ccc(-n4cnc(C)c4)c(F)c3)cccn12 [Compound 104]	–	–	IC50 (Aβ42 [3]): 29 nM; IC50 (Aβtotal [4]): 7240 nM
COc1cc(Nc2cccn3cc(C(=O)OC(C)(C)C)nc23)ccc1-n1cnc(C)c1 [Compound 106]	–	–	IC50 (Aβ42 [3]): 34 nM; IC50 (Aβtotal [4]): 4570 nM
COc1cc(Nc2cccn3cc(-c4cc(CN)ccc4C)nc23)ccc1-n1cnc(C)c1 [Compound 107]	–	–	IC50 (Aβ42 [3]; Homo sapiens): 48 nM; IC50 (Aβtotal [4]; Homo sapiens): 2040 nM
Cc1cc(F)ccc1-c1cn2cccc(Nc3ccc(-n4ncnc4C)c(F)c3)c2n1 [Compound 131]	245	> 10000	–
Cc1ncn(-c2ccc(Nc3cccn4c(C)c(-c5ccccc5Cl)nc34)c(F)c2)n1 [Compound 133]	468	> 3020	–
COc1cc(Nc2cc(C(F)(F)F)cn3cc(Cc4ccc(F)cc4)nc23)ccc1-n1cnc(C)n1 [Compound 146]	–	–	IC50 (Aβ42 [1]): 32 nM; IC50 (Aβtotal [2]): > 3020 nM
COc1cc(Nc2cc(C(F)(F)F)cn3cc(COc4ccc(F)cc4)nc23)ccc1-n1cnc(C)n1 [Compound 147]	42	> 3020	–
C=Cc1cn2cc(C(F)(F)F)cc(Nc3ccc(-n4cnc(C)n4)c(OC)c3)c2n1 [Compound 154]	> 3020	> 3020	–
COc1cc(Nc2cc(C(F)(F)F)cn3cc(C(=O)O)nc23)ccc1-n1cnc(C)c1 [Compound 156]	–	–	IC50 (Aβ42 [1]): > 3020 nM; IC50 (Aβtotal [2]): > 3020 nM
COc1cc(Nc2cc(C(F)(F)F)nn3cc(C)nc23)ccc1-n1cnc(C)c1 [Compound 164]	–	–	IC50 (Aβ42 [1]): 178 nM; IC50 (Aβtotal [2]): > 10000 nM
